Source: US11058653B2, “Compositions comprising desaminotyrosine and uses thereof to enhance type I interferon stimulation” (Washington University, priority 2016, dated 2021)
“Also recorded” adds a separate entry of the source.

Assays:
[1] = test system: H1N1 influenza strain PR8; assay: Influenza infection of mice, strain PR8; format: in vivo; conditions: mice infected with PR8
Description: (§1) FIG. 19A, FIG. 19B, FIG. 19C, FIG. 19D, FIG. 19E, FIG. 19F, FIG. 19G, FIG. 19H, FIG. 19I, FIG. 19J, FIG. 19L, FIG. 19K, FIG. 19M, and FIG. 19N (FIG. 19A and FIG. 19B) Representative images of influenza H1N1 staining by polyclonal antibody on lung cross sections from wild-type (WT) (FIG. 19A) and Irgm1^−/− (FIG. 19B) mice 6 days postinfection (representative images from 5-6 mice per group from two experiments). Bar=200 μm. (FIG. 19C and FIG. 19D) Stool (FIG. 19C) and serum (FIG. 19D) desaminotyrosine levels measured by mass spectroscopy in wild-type mice mock or treated with two weeks of antibiotics and then treated with 200 mM desaminotyrosine in drinking water for one week (n=5-13 per group from two experiments). (FIG. 19E, FIG. 19F, FIG. 19G, and FIG. 19H) Kaplan-Meier survival analysis of nonantibiotic and antibiotic-treated wild-type mice given control or desaminotyrosine in drinking water and then infected with H1N1 influenza strains PR8 (FIG. 19E and FIG. 19F) or Cali/09 (FIG. 19G and FIG. 19H) (n=10 mice per group). *p<0.05 by Mantel-Cox test. (FIG. 19I) Kaplan-Meier survival analysis of wild-type mice treated with indicated antibiotic(s) and then infected with influenza (n=20 mice per group from two experiments). *p<0.05, **p<0.01, and ****p<0.0001 compared to mock treated infected mice by Mantel-Cox test with Bonferroni-corrected threshold. […]

[2] = Barrier function: 4 kD dextran (FD4) in serum after gavage; format: in vivo, mice; conditions: VNAM 2 weeks then 200 mM desaminotyrosine 1 week in drinking water
Protocol: FIG. 17A depicts a graph quantifying the amount of damaged area following treatment with DSS +/−desaminotyrosine. FIG. 17B depicts a graph dextrain-FD4 measured in the serum of mice treated with VNAM for 2 weeks and then +/−200 mM of desaminotyrosine for 1 week in the drinking water. 4 kD Dextran was administered by gavage and serum collected 4 hours post-gavage.

type I IFN activity = format: in vivo, mice; conditions: after 2-week antibiotic course; desaminotyrosine orally plus polyIC injections vs polyIC alone
[3] = test system: type I IFN response elements (ISREs); assay: ISRE luciferase reporter metabolic screen (2fTGH-ISRE-CBG99 cell line); format: cell-based
Description: Therefore, a library of microbiome associated metabolites was screened for the ability to enhance type I IFN signaling.^21 A reported cell line that harbors multiple type I IFN response elements (ISREs) driving firefly luciferase was utilized.^22 Each metabolite was screened for the ability to enhance reporter activity in the background of type I IFN or polyIC (an inducer of type I IFN production) treatment (schematic FIG. 4A). Using this methodology, 11 metabolites were identified that increased reporter activity following polyIC co-stimulation (FIG. 4B) and 5 metabolites that increased ISRE reporter activity with type I IFN co-stimulation (FIG. 10).
Metabolites were screened using the 2fTGH-ISRE-CBG99 luciferase cell line.^22 The day before screening the reporter cells were plated at 3×10^4 cell/well in 96 well plates. […] Luciferase was measured at 14 hours post-treatment for IFN-β, and 24 hours post-treatment for poly(IC) using the […] […] Plates were read on a luminometer (1 second read time) using the CYTATION 5 (BioTek). For secondary validation, cells were treated with 1000 μM, 100 μM, 10 μM, and 1 μM of metabolite and 5 or 50 U/ml of IFN-β (PBL Assay Science) or 2.5 or […] of poly(IC) (Amersham Biosciences) and measured as above.

[4] = test system: influenza A/WSN/33 (rWSN) H1N1 virus; conditions: mouse, in vivo
[5] = test system: type I IFN signaling in BMDMs; format: cell-based, mouse
epithelial proliferation = assay: Crypt height and epithelial proliferation in mice; format: in vivo; conditions: VNAM 2 weeks, then 200 mM desaminotyrosine in drinking water
Protocol: FIG. 13 depicts an experimental scheme of mice treated with VNAM for 2 weeks and then give +/−200 mM desaminotyrosine in the drinking water for 1 week. After 1 week, the mice were continued on +/−200 mM desaminotyrosine and then treated with +/−1 mg/kg polyIC intraperitoneally once per day for 4 days and then sacrificed 1 day later.
(FIG. 14A, FIG. 14B, FIG. 14C, and FIG. 14D) Representative images of the crypt height for control (FIG. 14A), polyIC (FIG. 14B), deasminotyrosine, (FIG. 14C), and desaminotyrosine+polyIC (FIG. 14D) treated mice. FIG. 14E depicts a graph quantifying the crypt height after the various treatments relative to the control treated mice.
To examine the effects of desaminotyrosine on epithelial proliferation, mice were treated with and without antibiotics for 2 weeks and then with or without desaminotyrosine for […] and with or without polyIC (FIG. 13).

[6] = test system: H1N1 influenza strain California/09; assay: Influenza infection of mice, strain California/09; format: in vivo; conditions: mice infected with California/09
Description: as §1

[7] = test system: bone marrow derived macrophages infected with Influenza H1N1; format: cell-based
[8] = test system: dextran sodium sulfate (DSS) induced colitis; format: in vivo; conditions: antibiotic treated mice, 2.5% DSS

| SMILES | protection (survival) [1] | barrier function (dextran-FD4 in serum 4 hours post-gavage) [2] | type I IFN activity in the serum (type I IFN activity) | ISRE reporter activity (fold increase in luminescence), type I IFN signaling ([3]; with polyIC co-stimulation) | ISRE reporter activity (fold increase in luminescence), type I IFN signaling ([3]; with type I IFN (IFN-β) co-stimulation) | airway epithelial damage and apoptosis (H+E, cleaved caspase 3) [4] | desaminotyrosine mediated protection (survival) [4] | phenotypes associated with antibiotic treatment (morbidity and mortality) [4] | viral RNA in the lungs (matrix, qRT-PCR) [4] | polyIC and type I IFN expression of IP-10 ([5]; BMDMs from Mavs−/− mice) | IP-10 expression ([5]; BMDMs from Stat1−/− mice, polyIC or type I IFN with desaminotyrosine) | ISG transcript abundance (IP-10) ([5]; wild-type BMDMs, combined with either polyIC or type I IFN) | crypt height (epithelial proliferation) | epithelial proliferation (epithelial proliferation; alone) | protection (survival) [6] | influenza RNA in bone marrow derived macrophages ([7]; 24 hours pretreatment (100 μM), then infection MOI-2 48 hours, IFN/Ifnar-dependent) | ISG transcripts (Oas1, IP-10) after in vitro influenza infection ([7]; pretreated BMDMs, Ifnar-dependent) | response to DSS injury (epithelial proliferation, crypt preservation, damage) [8] | damaged area of the distal colon after DSS treatment ([8]; with desaminotyrosine (control mice ~90%)) [%] | influenza associated-mortality [4] |
| --- | --- | --- | --- | --- | --- | --- | --- | --- | --- | --- | --- | --- | --- | --- | --- | --- | --- | --- | --- | --- |
| O=C(O)CCc1ccc(O)cc1 [desaminotyrosine, 3-(4-hydroxyphenyl)propanoic acid] | protected | no effect on barrier function; also recorded: Not significant | increased type I IFN activity in the serum | enhanced type I IFN signaling in a dose-dependent manner | enhanced type I IFN signaling in a dose-dependent manner | greater airway epithelial damage and apoptosis were observed in control lungs | abolished | recused the phenotypes associated with antibiotic treatment | less viral RNA was found in the lungs | still enhanced | not enhanced | increased | increased crypt height | increased; also recorded: stimulated epithelia proliferation in the small intestine alone | protected | decreased influenza RNA; also recorded: depleted | increased ISG transcripts | promoted epithelial profliferation and crypt preservation; also recorded: rescues DSS damage | ~8 | – |
| Cc1ncc([N+](=O)[O-])n1CCO [metronidazole, reference compound] | – | – | – | – | – | – | – | – | – | – | – | – | – | – | – | – | – | – | – | enhanced influenza associated-mortality |
| CN[C@H](CC(C)C)C(=O)N[C@H]1C(=O)N[C@@H](CC(N)=O)C(=O)N[C@H]2C(=O)N[C@H]3C(=O)N[C@H](C(=O)N[C@H](C(=O)O)c4cc(O)cc(O)c4-c4cc3ccc4O)[C@H](O)c3ccc(c(Cl)c3)Oc3cc2cc(c3O[C@@H]2O[C@H](CO)[C@@H](O)[C@H](O)[C@H]2O[C@H]2C[C@](C)(N)[C@H](O)[C@H](C)O2)Oc2ccc(cc2Cl)[C@H]1O [vancomycin, reference compound] | – | – | – | – | – | – | – | – | – | – | – | – | – | – | – | – | – | – | – | enhanced influenza associated-mortality |
